Experimental findings from patent publication US11466024B2, “Bicylic compound acting as an inhibitor” (CHIA TAI TIANQING PHARMACEUTICAL GROUP CO., LTD., priority 2017, dated 2022) are described below.

SMILES strings stand for the structures. Counter-ions that a name gives are not always drawn.

Data set [1] has as its target T1, RORC2-LBD (Homo sapiens, UniProt P51449).
T1 sequence (P51449 269-508 limits assumed): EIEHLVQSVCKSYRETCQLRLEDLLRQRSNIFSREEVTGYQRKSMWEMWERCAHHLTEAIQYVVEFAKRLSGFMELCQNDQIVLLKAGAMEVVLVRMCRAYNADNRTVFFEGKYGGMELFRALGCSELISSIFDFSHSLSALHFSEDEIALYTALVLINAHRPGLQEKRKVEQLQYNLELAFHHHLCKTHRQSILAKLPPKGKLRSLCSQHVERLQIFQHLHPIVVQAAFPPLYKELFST
Kind of data set: In vitro test for inhibitory activity on RORγ: TR-FRET screening (RORC2-LBD / SRC1 peptide interaction). The class given is biochemical. To be noted: Value of the concentration required for 50% inhibition (EC50) of RORγ, 15 nM RORc-LBD, 200 nM SRC1 peptide, 4° C. overnight. An excerpt: The compounds of the present application was able to regulate (inhibit) the bioactivity of the nuclear receptor RORγ, and the strength of this regulatory (inhibitory) effect could be evaluated by a TR-FRET (time-resolved fluorescence resonance energy transfer) screening system. Nuclear receptor cofactors (co-activators and co-inhibitors) could regulate the transcription of a target gene by the interaction with nuclear receptors. If a ligand (test compound) affected the interaction between the nuclear receptors and the cofactors, this ligand (test compound) was able to regulate the transcription of the corresponding gene.
This method adopted the TR-FRET (time-resolved fluorescence resonance energy transfer) technique to determine the ability of a compound to regulate the interaction between the polypeptide indirectly bound to APC […] (namely, APC was indirectly bound to the polypeptide by binding to Streptavidin and biotin) and RORC2-LBD linked to a europium (Eu)-labeled anti-His antibody (Perkin Elmer #AD0111). In the absence of the compound, RORC2 could bind to an APC-modified polypeptide. If the compound was an agonist, it could enhance the interaction between RORC2 and the APC-modified polypeptide after binding to RORC2. On the contrary, if the compound was an inverse agonist, it could inhibit the interaction between RORC2 and the APC-modified polypeptide after binding to RORC2. When the APC-modified polypeptide and the Eu-labeled anti-His antibody-RORC2-LBD complex approached to each other and the distance therebetween was within a certain distance, energy transfer could occur and a TR-FRET signal was generated.
A buffer solution comprising 50 mM Tris (pH 7.0), 50 mM KCl, 1 mM Na-EDTA, 0.01% BSA (0.1 mg/ml), and 0.1 mM DTT was freshly formulated prior to the experiment.
2.3 Formulation of a RORγ-containing working solution. Prior to the test, a working solution containing 1.67 nM Eu/anti-His and 0.75 μl/well of SF9 cell lysate was freshly formulated, and was placed on ice before use. 25.05 nM of RORγ was added to the working solution.
2.5 Ten concentration gradients were set for each test compound, and duplicate wells were set for each concentration. The formulating method of the test compounds was as follows: […]
2) 15 μl of the RORγ-containing working solution was added to columns 1 to 21 of the tested 384-well plate (the final concentration of Eu/anti-His was 1 nM, and the final concentration of RORg was 15 nM); and […]
9) data analysis was performed using the ratio of the numerical value detected at an emission wavelength of 665 nm to the numerical value detected at an emission wavelength of 615 nm. […]
(In general: In TR-FRET formats the signal depends on donor and acceptor labels being close together.)

In data set [2] the target is T2, RORγ (Homo sapiens, UniProt P51449).
T2 sequence (P51449 97-518): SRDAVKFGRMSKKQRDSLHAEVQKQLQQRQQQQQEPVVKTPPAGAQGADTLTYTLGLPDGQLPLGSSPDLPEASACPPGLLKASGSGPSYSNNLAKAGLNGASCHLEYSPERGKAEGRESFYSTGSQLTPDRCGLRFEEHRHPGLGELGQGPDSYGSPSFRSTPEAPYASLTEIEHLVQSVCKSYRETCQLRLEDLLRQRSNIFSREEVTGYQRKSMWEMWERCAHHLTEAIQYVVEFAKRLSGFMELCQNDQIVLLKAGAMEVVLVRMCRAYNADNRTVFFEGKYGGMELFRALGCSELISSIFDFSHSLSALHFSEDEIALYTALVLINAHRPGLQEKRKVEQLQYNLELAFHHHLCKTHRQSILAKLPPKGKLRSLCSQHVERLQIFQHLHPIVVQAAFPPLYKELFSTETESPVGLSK
As to the kind of experiment: In vitro test for inhibitory activity on RORγ: luciferase reporter cells expressing chimeric Gal4-RORγ receptor. The data set is classed as cell-based. To be noted: Gal4 hybrid receptor luciferase reporter, HEK293, 24 hours incubation. The procedure: Reporter cells: Reporter cells expressing a chimeric RORγ receptor were used in this experiment. The chimeric RORγ receptor was a RORγ receptor formed by replacing the N-terminal DNA-binding domain of the natural RORγ protein with the DNA-binding domain of the yeast Gal4 protein. The luciferase reporter gene was located at the downstream of the Gal4 activating sequence (UAS).
Step 1: Reporter cells were prepared into a cell suspension using INDIGO's Cell Recovery Medium (CRM, containing 5% fetal bovine serum treated by activated carbon). The cell suspension was dispensed into a white 96-well culture plate in a volume of 100 μl/well.
Step 2: Eight concentration gradients were set for each test compound, and the test was conducted twice at each concentration. Prior to the experiment, the main stock solution of the test compound was serially diluted with DMSO, so as to formulate solutions with “1000×-concentration” relative to each of the final test concentrations. Subsequently, the compound was further diluted with the cell recovery medium (CRM, containing 5% fetal bovine serum treated by activated carbon), so as to formulate test working solutions with “2×-concentration”. As per a volume of 100 μl/well, the test working solutions were respectively added to the test wells in which the reporter cells were added in advance, so as to obtain the desired final test concentrations. The residual concentrations of DMSO in all test wells were 0.1%. The test plate was incubated in a cell incubator for 24 hours. Conditions of the incubator were set as follows: temperature: 37° C., 5% CO2, humidity: ˜85%.
Step 3: After 24 hours of incubation, the liquid in the culture plate was discarded, 100 μl of luciferase detection reagent was added to each test well, and then, the fluorescence intensity (Relative Luminescence Units, RLUs) in each well was read.
In this test, the reference compound ursolic acid was used as an internal standard of a positive compound to verify the inhibitory effect of the test compound on RORγ in reporter cells of a specific batch. The tests for the reference compound and the test compound were performed simultaneously, and the reference compound and the test compound were thus exposed to the same test reagent and environment. The reference compound group containing 0.1% DMSO as solvent was used as an internal standard of a positive compound, so as to determine the effect of the solvent DMSO on the test results and calculate the percentage reduction in RORγ activity.
The test data was managed and archived by Microsoft Excel, and mean±standard deviation (SD) of RLU, fold of reduction, inhibition rate, coefficient of variation (% CV) and Z factor were calculated. Coefficient of variation (% CV): 100×(SD/Ave. RLU); Fold of reduction for inverse agonist: [Ave. […]
Background: In a reporter assay the amount or activity of a reporter protein is the signal.

Data set [3] deals with MOG35-55-induced experimental autoimmune encephalomyelitis (EAE). Kind of data set: In vivo pharmacodynamic research on MOG35-55-induced experimental autoimmune encephalomyelitis (EAE) in mice. To be noted: G3, 0.5 mg/kg p.o. qd. The procedure:
The day of immunization was recorded as day 0, and the subsequent days were marked sequentially. Mice were anesthetized with isoflurane, and 100 μl of the emulsion was administered via subcutaneous injection at three sites (the middle part between shoulder and back, and two sides of the tail that were close to the groin), namely, 33 μl of the emulsion for each site. 0 hour and 48 hours after the injection of the emulsion, 200 ng (i.e. 200 μl) of the PTX solution was intraperitoneal injected. Mice in the normal group were not required to be immunized.
After the immunization on day 0, the immunized mice were randomly divided into 3 groups with 10 mice in each group according to the body weights except for the mice in the normal group, the details were shown in Table 1. FTY720 served as a positive drug, and a dose of […] was an effective dose commonly used in the EAE model.
The first group was normal mice without any treatment; vehicle was administered to the second group; FTY720 was administered to the third group at a dose of 0.5 mg/kg once a day; and the compound of Example 1 was administered to the fourth group at a dose of 75 mg/kg twice a day. The administration lasted for 25 days in total. The volume of intragastric administration was 10 ml/kg.
The day when animals were immunized was day 0. Animal body weights were recorded three times a week from day 0 to day 10, and the body weights and clinical scores of the animals were closely observed and recorded daily from day 11.
The experimental data was expressed as mean±standard error of mean (Mean±SEM).
The area under the curve of clinical scores over time (i.e. “AUC of clinical scores” or “area under the curve of clinical scores”) was calculated by analyzing the curve of clinical scores for each animal in each group, and the inhibition rates of the remaining groups (G1, G3, and G4) relative to G2 (solvent control group) were calculated by the mean AUC of clinical scores among groups.

Data set [4] relates to imiquimod-induced psoriasis. As to the kind of experiment: In vivo pharmacodynamic study in imiquimod (IMQ)-induced psoriasis model in mice. On the set-up: species or system C57BL/6 mice; key to Clinical scores (Mean ± SEM, n = 8): 0 = no disease, 1 mild, 2 moderate, 3 severe, 4 very severe. Particulars: 5 mg/kg, ig. The procedure: 6- to 8-week old female C57BL/6 mice were selected, depilated on the backs, and sensitized two days later except for the sham operation group. On the day of sensitization, the mice were randomly divided into the following 6 groups (8 mice per group). Group I was a sham operation group; Group II was a vehicle control group and PBS was administered; Group III was a positive control group and 5 mg/kg methotrexate was administered; Groups IV, V and VI were ip treatment group, ig treatment group, and topical treatment group of the compound of Example 1, and 75 mg/kg of the compound of Example 1 was administered via intraperitoneal injection, intragastric administration, and dorsal application, respectively. Administration was started on the day of sensitization, once daily for Group III and twice daily for Groups IV to VI. On the day of sensitization, the mice in Groups II to VI were given 60 to 80 mg of imiquimod cream (5%) on the dorsal skin for 4 consecutive days. (Please refer to Bouchaud, G., et al., Epidermal IL-15Ralpha acts as an endogenous antagonist of psoriasiform inflammation in mouse and man. J. Exp. Med., 2013. 210(10): p. 2105-17.)
The mice were weighed daily from the day of sensitization, and the skin scales, induration, and erythema were observed and scored according to a four-grade scoring method: 0 point, no disease; 1 point, mild; 2 points, moderate; 3 points, severe; and 4 points, very severe. (Please refer to Qin, S., et al., Endogenous n-3 polyunsaturated fatty acids protect against imiquimod-induced psoriasis-like inflammation via the IL-17/IL-23 axis. Mol Med Rep, 2014. 9(6): p. 2097-104.)

Broadly, the EC50 is the concentration at which the effect is half-maximal. For the molecule `CCS(=O)(=O)c1ccc(CNC(=O)c2cc3c(s2)C(C(C)C)N(CC2CCC(C(F)(F)F)CC2)C3=O)nc1` (single isomer, unassigned) [Example 4], the EC50 in data set [1] was 1000 to 5000 nM.

Consider `CCS(=O)(=O)c1ccc(CNC(=O)c2cc3c(s2)C(C(C)C)N(CC2CCC(C(F)(F)F)CC2)C3=O)nc1` (single isomer, unassigned) [Example 3], for which the EC50 is 147 nM in data set [2] (Specific value of the concentration required for 50% inhibition (EC50) of RORγ), 100 to 500 nM in data set [2] (Value of the concentration required for 50% Inhibition (EC50) of RORγ) and 100 to 500 nM in data set [1].

Regarding `CCCCCCCCc1ccc(CCC(N)(CO)CO)cc1` [FTY720, fingolimod hydrochloride, reference compound], the “inhibition rate of AUC of clinical scores relative to solvent control group” value in data set [3] (25 days, FIG. 2) came to 100%. Besides, in data set [3] (from the beginning to end, FIG. 3), the “morbidity of EAE” value came out at 0. Further, the body weight changes entry in data set [3] (significantly different from solvent control group, FIG. 4) is “kept increasing”.

Consider `CCS(=O)(=O)c1ccc(CNC(=O)c2cc3c(s2)C(C(C)C)N(Cc2ccc(C(F)(F)F)cc2)C3)nc1` (stereo not shown) [Example 9], for which, in data set [1], the EC50 was < 100 nM.

Turning to `CN(Cc1cnc2nc(N)nc(N)c2n1)c1ccc(C(=O)N[C@@H](CCC(=O)O)C(=O)O)cc1` [Methotrexate, reference compound], the “Clinical scores (Mean ± SEM, n = 8)” value in data set [4] (Day 1) is recorded as 0 ± 0; in data set [4] (Day 2) it was 0.19 ± 0.13; in data set [4] (Day 3), 0.50 ± 0.13; in data set [4] (Day 4) it was 0.88 ± 0.25; in data set [4] (Day 5), 0.93 ± 0.23.
